Several values for one entry are separate records, joined by “and”; a condition that tells them apart may be missing. Equal entries are not always repeated. Activity calls are given as the source filed them.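 Rule for the calls: active = compounds giving half or more protection of infected cells from virus-caused growth loss, again on retest; inactive = the rest.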
Tested on: CEM cells HIV-1 protection, formazan growth assay
Experiment: NCI AIDS Antiviral Assay
Details: for IC50: measured here: growth of uninfected CEM cells
How it was run: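 Category rules: moderately active means at least 50% protection on retest, and confirmed active means 100% protection reproducibly. The underlying data came from a formazan growth assay in HIV-1-infected CEM cells.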

Structure (SMILES) | EC50 [µM] | IC50 | outcome
CC1(N)COP(=O)(NCc2ccccc2)OC1 (centres undefined) | > 676 | 589 µM | 
O=S(=O)(O)c1cc(O)c2c(N=Nc3ccc(N=Nc4c(S(=O)(=O)O)cc5cc(Nc6ccccc6)ccc5c4O)c4ccccc34)cc(S(=O)(=O)O)cc2c1 |  |  | inactive
COP(=O)(OC)OC=C(Cl)Cl | > 200 | > 200 µM | 
CN=C(N)NC | > 1480 | > 1480 µM | 
CCCCN(CCCC)CC(C(=O)Nc1ccc([N+](=O)[O-])cc1[N+](=O)[O-])/C(C)=N\NC(=S)NN (centres undefined) | > 52.5 | > 52.5 µM | 
O=C(OCc1ccccc1)N1CC(O)C2OC3OC4(CCCCC4)OC3C21 (centres undefined) | > 200 | 170 µM | 
COc1ccccc1CNCc1nc2ccccc2[nH]1 | > 200 | 155 µM | 
CN(C)C1C(=O)C(C(=O)NCNC(C=O)C(O)C(O)C(O)CO)=C(O)C2(O)C(=O)C3=C(O)c4c(O)cccc4C(C)(O)C3CC12 (centres undefined) | > 178 | 110 µM | 
Cc1noc(NS(=O)(=O)c2ccc(NC(=O)c3ccc4nc5ccccc5c(Nc5ccc(S(=O)(=O)Nc6onc(C)c6C)cc5)c4c3)cc2)c1C | 63.1 | 110 µM | 
Cc1cc(N(C)C)ccc1N=Nc1ccc2ncccc2c1 |  |  | inactive
CCNCC(=O)O[C@]1(CC)C(=O)OCc2c1cc1n(c2=O)Cc2cc3ccccc3nc2-1 | > 10 | 0.0708 µM | 
CC(=O)NCCCCN(CCCNC(C)=O)C(=O)CNS(=O)(=O)c1cccc2c(N(C)C)cccc12 | > 200 | > 200 µM | 
CCCCCCCCCCCCCCCC1=NCCN1C | > 45.7 | 35.5 µM | 
COC(=O)C1C2CC3C(OC(=O)C31)C2OC(=O)[C@](OC)(c1ccccc1)C(F)(F)F (some centres undefined) | > 83.2 | > 83.2 µM | 
O=C(Nc1cc2c(oc1=O)CCCCC2)c1cnccn1 | > 100 | > 100 µM | 
CCCCN(CCCC)C(=S)SSC(=S)N(CCCC)CCCC | > 200 | 5.25 µM | 
Clc1ccc(-c2cc(=[N+]3CC[N+](=c4cc(-c5ccc(Cl)cc5)ss4)CC3)ss2)cc1 | 6.31 | 129 µM | 
Cc1ccc(-c2n[nH]c(=O)n2/N=C\c2ccccc2O)cc1 | > 200 | > 200 µM | 
CC(=O)O[C@H]1CC[C@]2(C)C3CC[C@]4(C)C([C@H](C)CCCC(C)C)CCC4[C@]3(C#N)n3c(=O)n(-c4ccccc4)c(=O)n3[C@]2(C#N)C1 (some centres undefined) | > 200 | > 200 µM | 
COC(=O)CCC(=O)N1CC1C (centres undefined) |  |  | inactive
COC(=O)C1(Cc2cccc(Cl)c2)CCCCCCN1C(=O)c1ccccc1 (centres undefined) | > 112 | 20.4 µM | 
COc1ccn(CC(C)=O)c(=O)n1 | > 200 | > 200 µM | 
COC(=O)C1C2COc3ccccc3C2=NC1c1ccc([N+](=O)[O-])cc1 (centres undefined) | > 100 | 13.8 µM | 

Structure (SMILES) | EC50 [µM] | IC50 | outcome
O=C1/C(=C/c2ccccc2)NC(=S)N1CN1CCOCC1 | > 200 | 72.4 µM | 
O=C1N=C2C=CC=CN2CC1O (centres undefined) | > 200 | > 200 µM | 
CCCCCC(/C=N/Nc1ccccc1)C(O)(C(F)(F)F)C(F)(F)F (centres undefined) | > 200 | 105 µM | 
O=C(Cn1c(=O)oc2ccc(C(=O)c3ccccc3Cl)cc21)c1ccc([N+](=O)[O-])cc1 | > 200 | 17 µM | 
CNC(=O)Oc1ccc(C(=O)OCCO)cc1 | > 200 | 95.5 µM | 
O=C(O)c1cc(N=Nc2ccc(/C=C/c3ccc(N=Nc4cc(C(=O)O)c(O)c5ccccc45)cc3S(=O)(=O)O)c(S(=O)(=O)O)c2)c2ccccc2c1O | 46.8 | 72.4 µM | 
CCOC(=O)c1ccc(Nc2nc3cc(C(F)(F)F)ccc3nc2C(=O)OCC)cc1 | > 200 | 83.2 µM | 
CCN(C(C)=N)c1ccccc1 | > 295 | 67.6 µM | 
COc1cc(/C=C/C(=O)c2ccc(O)c(OC)c2)ccc1O | > 200 | 11.5 µM | 
O=c1c2c(oc3cc(OCC4CO4)ccc13)CCC2 (centres undefined) | > 200 | 50.1 µM | 
Nc1n[nH]c(N)n1 | > 2510 | > 200 µM and 282 µM | 
CC1(C)C2CCC(CN=C(N)CSS(=O)(=O)O)C1C2 (centres undefined) | > 200 | 33.1 µM | 
O=C(NCCN1CCCC1)c1cn2c(ccc3sc4ccccc4c(=O)c32)n1 | > 200 | 1.26 µM | 
Cc1cn(C2CC(N=[N+]=[N-])C(C(=O)O)O2)c(=O)[nH]c1=O (centres undefined) | 11.7 | > 200 µM | 
CCOC(=O)C1N(S(=O)(=O)c2ccc(C)cc2)CCC12C(c1ccc(OC)cc1)NC1CCCCC12 (centres undefined) |  |  | inactive
O=Nc1cc(S(=O)(=O)O)c2cccnc2c1O | > 200 | 52.5 µM | 
Cc1cc(NS(=O)(=O)c2ccc(N)cc2)no1 | > 200 | > 200 µM | 
CN=C(/N=c1\ssc(=NC)n1C)N(C)C | > 70.8 | 50.1 µM | 
O=C(Nc1ccc2[nH]c(=S)sc2c1)Nc1ccccc1F | > 200 | 33.1 µM | 
Cc1ccccc1N(CC(=O)O)S(=O)(=O)c1ccccc1 |  |  | inactive
CC(=O)OCCCCn1cnc2nc(Nc3ccccc3)nc(Cl)c21 | > 200 | 135 µM | 
Cc1nc2ccc(Br)cc2c(=O)n1-c1nnc(C(C)(C)C)s1 | > 200 | > 200 µM | 
CC1(C)OC([C@H](O)CO)C([C@H]2NCCS2)O1 (some centres undefined) | > 200 | > 200 µM | 

Structure (SMILES) | EC50 [µM] | IC50 | outcome
CN(C)CCN(C)C(=O)C1CCCN1C(=O)OCc1ccccc1 (centres undefined) | > 759 | 46.8 µM | 
O=c1/c(=C/c2ccc3c(c2)OCO3)sc2nnc(-c3ccco3)n12 | > 55 | > 55 µM | 
Cc1ccc(NC(=O)CCC(=O)C2Cc3ccccc3C2=O)cc1C (centres undefined) | > 741 | 724 µM | 
Oc1ccccc1CNCc1nc2ccccc2[nH]1 | > 200 | 74.1 µM | 
COC(=O)c1cc(C(c2cc(C(=O)OC)c(OC)c(Br)c2C)C(Cl)Cl)c(C)c(Br)c1OC | > 200 | 10 µM | 
O=C(CC(=O)Nc1ccccc1Cl)NNC(c1cc(N=Nc2ccc(Br)cc2)ccc1O)P(O)O (centres undefined) | > 100 | 1.32 µM | 
Cc1cc(C)c(NS(=O)c2cccc([N+](=O)[O-])c2)c(C)c1 (centres undefined) | > 30.9 | > 30.9 µM | 
Cc1ccc(C(=O)N2CCCCC2)cc1N=NN(C)C | > 263 | 240 µM | 
Nc1nc(N)c2cnnn2n1 | > 295 | > 295 µM | 
CC(C)CC[CH2][Pb]([CH2]CCC(C)C)([CH2]CCC(C)C)[O]C(=O)C(Cl)(Cl)Cl | > 200 | 3.09 µM | 
CN(C)c1ccc(/C=C(\NC(=O)c2ccccc2)C(=O)NCC(=O)O)cc1 | > 100 | > 100 µM | 
O=C(NO)C(=O)Nc1ccc(Cl)cc1[N+](=O)[O-] | > 100 | > 100 µM | 
CC(=O)NNc1nc(C)c(C(=O)/C=C/c2ccc(NC(C)=O)cc2)s1 | > 28.2 | > 28.2 µM | 
O=C(/C=C/c1ccc2c(c1)OCO2)N1CCCCC1 |  |  | inactive
COc1c(C)c(C/C=C(\C)CCCCO)c(OC)c2ccccc12 | > 200 | 22.9 µM | 
CCOc1ccc2nc3cc(N=Nc4ccc5c(N)c6cc(OCC)ccc6nc5c4)ccc3c(N)c2c1 | > 100 | 20.4 µM | 
O=C1OC(c2cccc3ccccc23)c2ccccc21 (centres undefined) | > 501 | 26.3 µM | 
CN(C)CCCn1cnc2ncccc2c1=O |  |  | inactive
c1ccc2c(c1)NC(C1OC3CCCN3C1C1Nc3ccccc3S1)S2 (centres undefined) | > 200 | 107 µM | 
CC(C)C12C=CC(C)(CC1)n1c(=O)c3cc4ccccc4cc3c(=O)n12 (centres undefined) | > 4.17 | > 4.17 µM | 
O=C(Nc1ccc([N+](=O)[O-])cc1C(=O)O)c1ccc([N+](=O)[O-])cc1 |  |  | inactive
COc1c(C)c2c(c3c1c(=O)c1ccccc1n3C)C=CC(C)(C)O2 | > 15.5 | 11 µM | 
S=C1NC(c2ccccc2)=NC(Cc2ccccc2)(c2ccccc2)N1c1ccccc1 (centres undefined) |  |  | inactive

Structure (SMILES) | EC50 [µM] | IC50 | outcome
O=c1cn[nH]c2cc(Cl)ccc12 | > 117 | > 117 µM | 
COc1ccc(OC)c(CCc2cc(OC)ccc2OC)c1 | > 200 | 1.26 µM | 
CC(C)c1ccc(S(=O)(=O)c2ccc([N+](=O)[O-])cc2[N+](=O)[O-])cc1 | > 200 | 0.851 µM | 
CCc1ccc(N2C(=O)C(CC(=O)O)SC23C(=O)N(Cc2ccccc2)c2ccccc23)cc1 (centres undefined) | > 525 | 28.8 µM | 
OCC12C3C4C5C3C1C5C42 (centres undefined) | > 200 | > 200 µM | 
Cc1cccc(C=C2C(=O)NC(=O)NC2=O)c1 | > 407 | > 407 µM | 
COc1cc([N+](=O)[O-])ccc1NC(=O)Nc1cc(C)ccn1 | > 200 | > 200 µM | 
O=C(O)CCCCCCCCCC(=O)O | > 794 | > 794 µM | 
COc1c(C(C)C)cc2c3c1OC(=O)[C@@]31CCCC(C)(C)C1CC2 (some centres undefined) | > 200 | 30.9 µM | 
CC1CC(c2cccc3c2OCO3)=Nc2ccccc2S1 (centres undefined) | > 17.4 | > 17.4 µM | 
O=C1c2ccccc2C(=O)c2c(NCCOCCO)ccc(NCCOCCO)c21 | > 200 | 107 µM | 
CCCCCCCCC1=C(OC)C(=O)c2ccc(COC(C)=O)nc2C1=O |  |  | inactive
COc1ccc(N2C(=O)C3c4[nH]c5ccc(OC)cc5c4C4CCC(c5ccccc5)CC4C3C2=O)cc1 (centres undefined) | > 100 | 67.6 µM | 
CCc1cc2c(oc3cc4ccccc4cc32)c(=O)[nH]1 | > 200 | > 200 µM | 
CCOP(=O)(OCC)C1(O)CC(n2cc(C)c(=O)[nH]c2=O)OC1CO (centres undefined) | > 200 | > 200 µM | 
Cc1cc2c(=O)c(C)n[nH]c2c(C#N)c1C | > 1170 | 178 µM | 
S=C1NC2(CCCCC2)N2C(=S)NC3(CCCCC3)N12 |  |  | inactive
N#Cc1c(O)c(C=Nc2ccc(Cl)cc2)c(=O)n2c1[nH]c1ccccc12 | > 100 | > 100 µM | 
S=c1nc[nH]c2nc[nH]c12 | > 234 | 1.51 µM | 
Cc1c(COC(=O)NC(C)C)c(COC(=O)NC(C)C)c2n1CSC2 | > 51.3 | 2.4 µM | 
CC1=C(C(=O)CC(=O)C(=O)Nc2ccccc2)Sc2ccccc2N1 | > 178 | > 178 µM | 

From PubChem BioAssay AID179 (DTP/NCI, 2004)
